Data as given in patent US6387948B1, “8-Acetylarteminolide and process for preparing same” (Korea Research Institute of Bioscience and Biotechnology, priority 2000, dated 2002).
Values after ≈ are worked out from the molar mass of the structure shown. Values joined by “and” are separate entries in the source; they are usually repeats but may differ in a detail not shown here. Equal values may be shown once.

How the values were obtained:
[1] = tested on: Human breast cancer cell line MCF-7; test: Cell-cycle inhibiting activity, propidium iodide FACS analysis; type: cell-based; conditions: MCF7, G2 to M phase progression, read-out: concentration required for inhibiting the progression of the cell cycle by 50%
[2] = biological target: T1, farnesyl-protein transferase(FPTase) (Rattus norvegicus, UniProt Q02293+Q04631); test: Farnesyl-protein transferase inhibiting activity, scintillation proximity assay (SPA); type: biochemical, white rat; conditions: rat cerebrum FPTase, 3H-FPP, biotin-lamin B peptide; read-out: concentration required for inhibiting farnesyl protein transferase by 50%(IC50) (converted)
T1 construct: the cerebrum of a white rat(male Sprague Dowley weighing 100-150 g) was washed with physiological saline solution and homogenized; from tissue; host or cells: rat cerebrum (male Sprague Dawley)
Description: Farnesyl-protein transferase(FPTase) activity was determined in accordance with the scintillation proximity assay(SPA) method of Blown et al. described in Cell, 62, 1(1990) by using ^3H-farnesyl pyrophosphate(^3H-FPP) as a substrate.
First, the cerebrum of a white rat(male Sprague Dowley weighing 100-150 g) was washed with physiological saline solution and homogenized. The homogenized solution was centrifuged and partially purified by using Q sepharose fast flow column(Pharmacia, co.) to obtain famnesyl protein transferase(FPTase).
10 μl of 8-acetylarteminolide, 40 μl of FPTase obtained above, 10 μl of an assay buffer(50 mM Tris-HCl, pH 7.5, 25 mM MgCl2, 2 mM KCl, 5 mM DTT, 5 mM Na2HPO4, 0.01% Triton X-100), 20 μl of diluted ^3H-FPP and 20 μl of biotin-lamin B peptide were mixed together and the resulting mixture was reacted at room temperature for 30 minutes. 150 μl of SPA bead/stop reagent solution(Amersham, Inc. UK) was added to the mixture and the enzymatic activity was determined by examining the extent of biotin-lamin B peptide farneslyation, expressed by unit of count per minute(CPM), with a liquid scintillation counter.
The FPTase inhibiting activity was then calculated in accordance with the following equation: [formula] […]

[3] = Solubility (physicochemical properties)
[4] = tested on: Angiogenesis; test: Angiogenesis-suppressing activity, chorioallantoic membrane(CAM) assay; type: in vivo; conditions: Gallus gallus; 10 μg/ml, CAM of fertilized chicken eggs
Description: Angiogenesis was determined in accordance with the chorioallantoic membrane(CAM) assay method described in Kusaka et al., Biochem. Biophy. Res. Comm., 174, 1070(1991), using fertilized chicken eggs.
A fertilized chicken egg(Pulmuwon co., Korea) was incubated at 37-38° C. and a humidity of more than 90%. Here, 0 day-embryo means that the fertilized egg had been stored at 18° C. for less than 4 days since laying.
The pointed end of the fertilized egg was scratched with a knife, laid horizontally, the scratched site was punctured with a 5 ml syringe and 2 ml of albumin was extracted from the fertilized egg. The puncture hole was then sealed with a glass-tape. The fertilized egg, positioned such that the sealed hole was at the bottom, was incubated under the same condition described above.
The end of the fertilized egg where the air sac is located, i.e., the end opposite to the hole site was opened, a window having a diameter of 2-3 cm was installed therein, the window was sealed with a glass-tape, and the incubation was resumed.
By this time, a CAM of 2-5 mm diameter had developed. 8-Acetylarteminolide was dissolved in ethanol to a concentration of 10 μg/ml, 10 μl of the solution was dropped on quartered Thermanox coverslip(Nunc, Co.,) and dried in a clean bench. […]
Angiogenesis suppressing activity was then calculated in accordance with the following equation: [formula]

[5] = tested on: Human breast cancer cell line MCF-7; test: Cell-cycle inhibiting activity, propidium iodide FACS analysis; type: cell-based; conditions: for % of cells G0/G1 phase / % of cells G2/M phase / % of cells S phase: 7.5 μl of 5 mg/ml DMSO solution in 7.5 ml medium
Description: Human breast cancer cell line MCF-7(ATCC HTB-22) was divided into 7.5 ml portions of RPMI1640 culture medium(GIBCO BRL) kept in T25 flasks and incubated at 37° C. under an atmosphere containing 5% CO2 for 12 hours. Added to the cell cultures of one group of flasks was 7.5 μl of DMSO solution containing 5 mg/ml of 8-acetylarteminolide obtained in Example 1, while 7.5 μl of pure DMSO was added to the cultures of another group of flasks as a control, followed by incubation at 37° C. under an atmosphere containing 5% CO2 for 12, 24 and 36 hours, respectively.
To examine the activity of inventive compound in inhibiting the progression of the cell cycle, each of the cultures was treated with trypsin and centrifuged at 200×g for 5 minutes, and then, the cell precipitate was washed twice with cold PBS. 3 ml of 70% ethanol was added thereto and the resulting mixture was left standing at −20° C. for 12 hours to fix the cell. The resulting mixture was centrifuged at 200×g for 5 minutes and the cell precipitate was washed twice with PBS to remove remaining ethanol. Added to the cell precipitate in sequence were 1 ml of PBS and 50 μl RNase A solution(100 μg/ml). The mixture was reacted at 37° C. for 30 minutes and 10 μl of PBS containing 1 mg/ml of propidium iodide was added thereto.
The cell cycles of 20,000 stained cells were analyzed by using Becton-Dickinson FACS Calibur and Becton-Dickinson Modifit cell-cycle analysis program.

C=C1C(=O)OC2C1CCC(C)(O)C13C=CC(C)(C21)C1(C3)C(=O)OC2C3C(C)=CC(=O)C3=C(C)CC(OC(C)=O)C21 (stereo not shown) [8-acetylarteminolide]
IC50 [1]: ~5 µg/mL (≈ 9.11 µM)
IC50 [2]: ~1820 nM and ~1800 nM and 1820 nM and 1800 nM
Solubility Insoluble: ([3]; solvents in which insoluble): hexane, H2O
Solubility Soluble: ([3]; solvents in which soluble): alcohol, acetone, chloroform, DMSO
inhibition at 10 µg/mL [4]: 60%
% of cells G0/G1 phase ([5]; MCF-7, 12 hours): 47.59%
% of cells G2/M phase ([5]; MCF-7, 12 hours): 18.06%
% of cells S phase ([5]; MCF-7, 12 hours): 34.35%
percentage of cells in the G2/M phase compared to the control cells ([5]; MCF-7, 24 hours): 10 fold
% of cells G0/G1 phase ([5]; MCF-7, 24 hours): 47.49%
% of cells G2/M phase ([5]; MCF-7, 24 hours): 27.97%
% of cells S phase ([5]; MCF-7, 24 hours): 24.54%
percentage of cells in the G2/M phase compared to the control cells ([5]; MCF-7, 36 hours): two-fold higher
% of cells G0/G1 phase ([5]; MCF-7, 36 hours): 73.2%
% of cells G2/M phase ([5]; MCF-7, 36 hours): 19.79%
% of cells S phase ([5]; MCF-7, 36 hours): 7.01%
